One experiment concerns the target H1047R PIK3CA enzyme (Homo sapiens, UniProt P42336, H1047R). The experiment in a line: ADP-Glo Biochemical PIK3CA Kinase Assay. Background: ADP-Glo turns the ADP formed in a reaction into a luminescent signal.
A further experiment is described as follows: cells. The settings on record: Homo sapiens, MCF-10A, read-out: MCF10A I50.
The mark [1] stands for this setting: ADP-Glo biochemical PIK3CA kinase assay.

Read-outs that look alike come from different tables or passages of the source. Some results are limits rather than exact numbers.

Consider 42 molecules from patent US20250090540A1, “PI3K-ALPHA INHIBITORS AND METHODS OF USE THEREOF” (Relay Therapeutics, Inc., priority 2021, published 2025).

H1047R PIK3CA enzyme, sequence (P42336 whole entry H1047R): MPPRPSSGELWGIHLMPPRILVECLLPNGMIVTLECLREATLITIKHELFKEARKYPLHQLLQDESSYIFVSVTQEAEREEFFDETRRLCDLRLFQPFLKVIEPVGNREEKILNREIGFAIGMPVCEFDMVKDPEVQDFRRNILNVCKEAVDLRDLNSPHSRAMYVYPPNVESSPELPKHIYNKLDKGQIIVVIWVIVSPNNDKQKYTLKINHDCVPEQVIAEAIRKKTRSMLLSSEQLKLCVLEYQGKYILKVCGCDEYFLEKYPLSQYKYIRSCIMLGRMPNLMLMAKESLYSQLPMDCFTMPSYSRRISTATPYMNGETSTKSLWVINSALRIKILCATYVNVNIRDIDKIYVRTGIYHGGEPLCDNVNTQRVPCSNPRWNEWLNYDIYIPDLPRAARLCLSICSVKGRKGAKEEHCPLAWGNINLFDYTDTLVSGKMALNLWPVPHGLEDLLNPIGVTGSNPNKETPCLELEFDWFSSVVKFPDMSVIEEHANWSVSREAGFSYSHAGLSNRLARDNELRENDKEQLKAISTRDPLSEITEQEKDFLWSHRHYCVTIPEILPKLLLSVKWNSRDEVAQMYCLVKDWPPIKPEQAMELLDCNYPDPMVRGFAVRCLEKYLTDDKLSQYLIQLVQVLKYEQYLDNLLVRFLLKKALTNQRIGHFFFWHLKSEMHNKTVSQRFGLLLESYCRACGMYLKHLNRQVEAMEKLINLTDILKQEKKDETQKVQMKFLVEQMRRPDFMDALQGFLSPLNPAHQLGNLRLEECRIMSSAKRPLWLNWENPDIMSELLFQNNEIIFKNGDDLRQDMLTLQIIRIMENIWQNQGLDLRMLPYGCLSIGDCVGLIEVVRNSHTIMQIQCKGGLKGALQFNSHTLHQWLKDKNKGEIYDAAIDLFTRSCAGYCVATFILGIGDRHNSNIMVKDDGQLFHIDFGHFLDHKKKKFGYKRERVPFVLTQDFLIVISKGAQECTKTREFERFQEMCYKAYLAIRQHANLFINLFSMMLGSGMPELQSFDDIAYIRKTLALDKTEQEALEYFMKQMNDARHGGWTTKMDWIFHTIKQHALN
H1047R PIK3CA enzyme, sequence (P27986 whole entry partner): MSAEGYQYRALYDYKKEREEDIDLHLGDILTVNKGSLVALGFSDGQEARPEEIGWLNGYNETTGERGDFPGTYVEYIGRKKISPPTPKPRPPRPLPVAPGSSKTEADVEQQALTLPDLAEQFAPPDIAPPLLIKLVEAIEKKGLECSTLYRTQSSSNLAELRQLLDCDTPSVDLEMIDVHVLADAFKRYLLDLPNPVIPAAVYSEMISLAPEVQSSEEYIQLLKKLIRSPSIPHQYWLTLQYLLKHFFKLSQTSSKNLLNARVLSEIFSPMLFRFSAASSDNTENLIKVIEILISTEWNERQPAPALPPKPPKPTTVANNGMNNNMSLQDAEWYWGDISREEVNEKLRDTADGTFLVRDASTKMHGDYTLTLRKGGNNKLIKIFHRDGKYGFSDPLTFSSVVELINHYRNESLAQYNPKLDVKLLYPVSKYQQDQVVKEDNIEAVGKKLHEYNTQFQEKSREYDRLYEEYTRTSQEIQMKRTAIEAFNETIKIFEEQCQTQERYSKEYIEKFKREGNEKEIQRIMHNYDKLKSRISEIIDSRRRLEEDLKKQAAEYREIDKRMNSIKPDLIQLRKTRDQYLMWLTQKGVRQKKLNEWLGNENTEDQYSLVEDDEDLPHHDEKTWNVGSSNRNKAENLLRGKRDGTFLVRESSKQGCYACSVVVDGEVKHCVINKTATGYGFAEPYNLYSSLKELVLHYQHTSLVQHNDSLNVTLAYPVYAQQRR

For `CNC(=O)c1cnc(Nc2ccccc2C)c(NC(=O)c2cc(F)cc(C#N)c2)c1` [I-313], the results for the IC50 on H1047R PIK3CA enzyme and in the experiment “cells” were 1 to 10 µM and 10 to 36 µM, respectively.

For the molecule `O=C(NCCN1CCOCC1)c1cnc(N2CCOc3ccccc32)c(NC(=O)c2csc3ccccc23)c1` [I-316], the IC50 fell in the range of 1 to 10 µM against H1047R PIK3CA enzyme and 36 to 100 µM in the experiment “cells”.

Regarding `C[C@]1(O)C[C@@H](NC(=O)c2cnc(N3CCOc4ccccc43)c(NC(=O)c3csc4ccccc34)c2)C1` [I-317], the IC50 on H1047R PIK3CA enzyme fell in the range of 0.1 to 0.5 µM; in “cells”, 5 to 10 µM.

As to `CC(=O)N1CC(NC(=O)c2cnc(N3CCOc4ccccc43)c(NC(=O)c3cc(F)cc(C(F)(F)F)c3)c2)C1` [I-329], the IC50 against H1047R PIK3CA enzyme lay within 0.5 to 1 µM; in the experiment “cells” it was 10 to 36 µM.

Turning to `Cc1ccccc1Nc1ncc(C(=O)NC2CS(=O)(=O)C2)cc1NC(=O)c1nsc2ccccc12` [I-330], the IC50 against H1047R PIK3CA enzyme fell in the range of 0.1 to 0.5 µM; in the experiment “cells” it was 1 to 5 µM.

Consider `Cc1ccccc1Nc1ncc(C(=O)NC2C[S+]([O-])C2)cc1NC(=O)c1nsc2ccccc12` (stereo not drawn) [I-331], for which the IC50 against H1047R PIK3CA enzyme fell in the range of 0.1 to 0.5 µM; in the experiment “cells”, 1 to 5 µM.

On to `Cc1ccccc1Nc1ncc(C(=O)NC2CC(F)(F)C2)cc1NC(=O)c1nsc2ccccc12` [I-332], for which the IC50 against H1047R PIK3CA enzyme was in the range of 0.1 to 0.5 µM; in “cells”, 5 to 10 µM.

Turning to `CNC(=O)c1cnc(Nc2ncccc2C)c(NC(=O)c2csc3ccccc23)c1` [I-335], the IC50 against H1047R PIK3CA enzyme lay within 0.5 to 1 µM; in “cells”, 10 to 36 µM.

For the molecule `CNC(=O)c1cnc(Nc2ccccc2C)c(NC(=O)c2csc3cnccc23)c1` [I-339], the IC50 on H1047R PIK3CA enzyme lay within 0.5 to 1 µM; in the experiment “cells”, 1 to 5 µM.

As for `Cc1ccccc1Nc1cnc(C(=O)NC2CS(=O)(=O)C2)cc1NC(=O)c1cc(F)cc(C(F)(F)F)c1` [I-343], the IC50 was 1 to 10 µM against H1047R PIK3CA enzyme and under 1 µM in “cells”.

`O=C(NC1CC(F)(F)C1)c1cnc(N2CCOc3ccccc32)c(NC(=O)c2csc3ccccc23)c1` [I-347]: the IC50 against H1047R PIK3CA enzyme was 0.1 to 0.5 µM; in the experiment “cells”, 1 to 5 µM.

Consider `Cc1ccccc1Nc1cc2nnc(N)n2cc1NC(=O)c1csc2ccccc12` [I-350], for which the IC50 at H1047R PIK3CA enzyme lay in the range of 1 to 10 µM; in the experiment “cells”, 1 to 5 µM.

Consider `Cc1ccccc1Nc1ncc(C(=O)NC2(C)CS(=O)(=O)C2)cc1NC(=O)c1csc2ccccc12` [I-361], for which the figures for the IC50 against H1047R PIK3CA enzyme and in the experiment “cells” were 0.1 to 0.5 µM and 1 to 5 µM, respectively.

Turning to `CNC(=O)c1cnc(Nc2ccccc2Cl)c(NC(=O)c2csc3ccccc23)c1` [I-362], the IC50 at H1047R PIK3CA enzyme is at most 0.1 µM; in the experiment “cells”, 10 to 36 µM.

For `Cc1cc(Cn2cc(NC(=O)c3csc4ccccc34)c(Nc3ccccc3C)cc2=O)no1` [I-390], the IC50 against H1047R PIK3CA enzyme lay within 0.1 to 0.5 µM; in the experiment “cells”, 10 to 36 µM.

For the molecule `Cc1ccccc1Nc1ncc(C(=O)N[C@H]2C[C@@H](O)C2)cc1NC(=O)c1cc(F)cc(C(F)(F)F)c1` [I-395], the results for the IC50 against H1047R PIK3CA enzyme and in “cells” were 0.1 to 0.5 µM and 1 to 5 µM, respectively.

Turning to `O=C(Nc1cc(C(=O)N[C@H]2C[C@H](O)C2)cnc1Nc1ccccc1)c1cc(F)cc(C(F)(F)F)c1` [I-396], the values for the IC50 against H1047R PIK3CA enzyme and in the experiment “cells” were 0.1 to 0.5 µM and 1 to 5 µM, respectively.

On to `Cc1ccccc1Nc1ncc(C(=O)N[C@H]2C[C@@H](O)C2)cc1NC(=O)c1csc2ccccc12` [I-397], for which the IC50 on H1047R PIK3CA enzyme was at most 0.1 µM; in the experiment “cells” it was 5 to 10 µM.

`Cc1ccccc1Nc1ncc(C(=O)NC2CC(=O)N(Cc3ccccc3)C2)cc1NC(=O)c1csc2ccccc12` (stereo not drawn) [I-398]: the IC50 lay in the range of 0.1 to 0.5 µM on H1047R PIK3CA enzyme (setting [1]) and 10 to 36 µM in “cells”.

As for `Cc1ccccc1Nc1ncc(C(=O)N[C@H]2C[C@H](O)C2)cc1NC(=O)c1csc2ccccc12` [I-399], the results for the IC50 against H1047R PIK3CA enzyme (setting [1]) and in “cells” were at most 0.1 µM and 1 to 5 µM, respectively.

As to `CNC(=O)c1cnc(Nc2ccccc2C)c(NC(=O)c2csc3c2CCOC3)c1` [I-402], the figures for the IC50 against H1047R PIK3CA enzyme (setting [1]) and in the experiment “cells” were 1 to 10 µM and 10 to 36 µM, respectively.

As for `CNC(=O)c1cnc(Nc2ncccc2OC)c(NC(=O)c2csc3ccccc23)c1` [I-405], the IC50 against H1047R PIK3CA enzyme (setting [1]) was 10 to 100 µM; in “cells” it was 36 to 100 µM.

For `CNC(=O)c1cnc(Nc2ccccc2C)c(NC(=O)c2coc3c(F)cc(F)cc23)c1` [I-406], the IC50 fell in the range of 0.5 to 1 µM at H1047R PIK3CA enzyme (setting [1]) and 1 to 5 µM in the experiment “cells”.

On to `CNC(=O)c1cnc(Nc2ccccc2OC)c(NC(=O)c2csc3ccccc23)c1` [I-407], for which the IC50 against H1047R PIK3CA enzyme (setting [1]) was in the range of 1 to 10 µM; in the experiment “cells”, 36 to 100 µM.

In the case of `CNC(=O)c1cnc(Nc2ccccc2C)c(NC(=O)c2coc3ccc(Cl)cc23)c1` [I-408], the IC50 against H1047R PIK3CA enzyme (setting [1]) fell in the range of 0.5 to 1 µM; in “cells”, 1 to 5 µM.

Take `CNC(=O)c1cnc(Nc2ccccc2C)c(NC(=O)c2csc3ccc(OC)cc23)c1` [I-409]: the IC50 against H1047R PIK3CA enzyme (setting [1]) is 1 to 10 µM; in “cells”, 10 to 36 µM.

`Cc1ccccc1Nc1ncc(CNC2CS(=O)(=O)C2)cc1NC(=O)c1cc(F)cc(C(F)(F)F)c1` [I-411]: the IC50 fell in the range of 1 to 10 µM against H1047R PIK3CA enzyme (setting [1]) and 10 to 36 µM in the experiment “cells”.

Turning to `CNC(=S)c1cnc(Nc2ccccc2C)c(NC(=O)c2csc3ccccc23)c1` [I-412], the IC50 at H1047R PIK3CA enzyme (setting [1]) was in the range of 0.1 to 0.5 µM; in the experiment “cells”, 10 to 36 µM.

For the molecule `Cc1ccccc1Nc1ncncc1NC(=O)c1csc2ccccc12` [I-413], the results for the IC50 on H1047R PIK3CA enzyme (setting [1]) and in the experiment “cells” were 1 to 10 µM and 10 to 36 µM, respectively.

In the case of `CNC(=O)c1cnc(Nc2ccccc2C)c(NC(=O)c2cc3c(Cl)ccnc3[nH]2)c1` [I-424], the IC50 against H1047R PIK3CA enzyme (setting [1]) was 10 to 100 µM; in “cells”, 36 to 100 µM.

In the case of `Cc1ccccc1Nc1ncc(C(=O)NC2CC(=O)N(C)C2)cc1NC(=O)c1csc2ccccc12` (stereo not drawn) [I-434], the values for the IC50 on H1047R PIK3CA enzyme (setting [1]) and in “cells” were 0.1 to 0.5 µM and 5 to 10 µM, respectively.

Take `Cc1ccccc1Nc1ncc(N2CC(S(C)(=O)=O)C2)cc1NC(=O)c1csc2ccccc12` [I-436]: the IC50 on H1047R PIK3CA enzyme (setting [1]) was in the range of 0.5 to 1 µM; in the experiment “cells” it was 10 to 36 µM.

For `CNC(=O)c1cnc(Nc2ccccc2C)c(NC(=O)c2cnn3cccc(Br)c23)c1` [I-468], the IC50 against H1047R PIK3CA enzyme (setting [1]) fell in the range of 1 to 10 µM; in “cells”, 10 to 36 µM.

`CNC(=O)c1cnc(Nc2ccccc2C)c(NC(=O)c2cc3c(Br)cccn3c2)c1` [I-486]: the IC50 against H1047R PIK3CA enzyme (setting [1]) was in the range of 0.1 to 0.5 µM; in the experiment “cells”, 10 to 36 µM.

`Cc1ccccc1Nc1ncc(C(=O)Nc2cccnn2)cc1NC(=O)c1csc2ccccc12` [I-496]: the values for the IC50 on H1047R PIK3CA enzyme (setting [1]) and in the experiment “cells” were 0.5 to 1 µM and 10 to 36 µM, respectively.

With `CNC(=O)c1cnc(Nc2ccccc2C)c(NC(=O)C2(c3ccccc3Cl)CC2)c1` [I-499], the IC50 is at most 0.1 µM against H1047R PIK3CA enzyme (setting [1]) and 10 to 36 µM in the experiment “cells”.

On to `Cc1ccccc1Nc1ncc(C(=O)N[C@@H]2c3ccccc3C[C@@H]2O)cc1NC(=O)c1csc2ccccc12` [I-506], for which the results for the IC50 against H1047R PIK3CA enzyme (setting [1]) and in the experiment “cells” were 0.1 to 0.5 µM and 5 to 10 µM, respectively.

`Cc1ccccc1Nc1ncc(C(=O)Nc2cn(C)cn2)cc1NC(=O)c1csc2ccccc12` [I-508]: the results for the IC50 on H1047R PIK3CA enzyme (setting [1]) and in “cells” were 0.1 to 0.5 µM and 10 to 36 µM, respectively.

Consider `CNC(=O)c1cnc(Nc2ccccc2C)c(NC(=O)c2cc(Br)cc3c2cnn3C)c1` [I-510], for which the IC50 against H1047R PIK3CA enzyme (setting [1]) fell in the range of 0.1 to 0.5 µM; in “cells”, 10 to 36 µM.

With `COc1cnccc1CCNC(=O)c1cnc(Nc2ccccc2C)c(NC(=O)c2csc3ccccc23)c1` [I-515], the values for the IC50 against H1047R PIK3CA enzyme (setting [1]) and in “cells” were 0.1 to 0.5 µM and 10 to 36 µM, respectively.

Consider `Cc1ccccc1Nc1ncc(C(=O)NCC(F)F)cc1NC(=O)c1csc2ccccc12` [I-519], for which the IC50 was at most 0.1 µM on H1047R PIK3CA enzyme (setting [1]) and 5 to 10 µM in “cells”.

As to `CNC(=O)c1cnc(Nc2ccccc2C)c(NC(=O)c2n[nH]c3ccc(Br)cc23)c1` [I-520], the IC50 was at most 0.1 µM at H1047R PIK3CA enzyme (setting [1]) and 10 to 36 µM in “cells”.
